SMILES strings stand for the structures. Like-named read-outs stand apart in the source and are kept apart here.

Assay [1] deals with Methicillin resistant S. aureus (MRSA) (ATCC BAA-44). Description: Bacterial proliferation assay, MRSA. The assay is classed as cell-based, Staphylococcus aureus. The source says:
(§1) Bacterial Strains: Enterococcus faecium—(Orla-Jensen) Schleifer and Kilpper-Balz strain NCTC 7171 (ATCC 19434); Drug sensitive Staphylococcus aureus—Rosenbranch strain Seattle 1945 (ATCC 25923); Methicillin resistant S. aureus (MRSA)—Rosenbach strain HPV107 (ATCC BAA-44); Klebsiella Pneumonia—(Schroeter) Trevisan strain NCTC 9633 (ATCC 13883); Acinetobacter baumannii—Bouvet and Grimont strain 2208 (ATCC 19606); Pseudomonas aeruginosa—(Schroeter) Migula strain NCTC 10332 (ATCC 10145); Enterobacter cloacae—E. cloacae, subsp. cloacae (Jordan) Hormaeche and Edwards strain CDC 442-68 (ATCC 13047).
(§2) Growth Media: All bacteria were grown in Brain Heart Infusion (BHI) broth/agar (Becton, Dickinson and Company). All liquid cultures were grown in BHI media supplemented with 25 mg/L Ca^2+ and 12.5 mg/L Mg^2+ to mimic free physiological concentrations of these cations. A 10 mg/mL Ca^2+ stock solution was prepared by dissolving 3.68 g of CaCl2.2H2O in 100 mL of deionized water, and a 10 mg/mL Mg^2+ stock solution was prepared by dissolving 8.36 g of MgCl2.6H2O in 100 mL deionized water. Both stock solutions were filter-sterilized using 0.2 μm pore size cellulose-acetate filters. 2.5 mL of the sterile 10 mg/mL Ca^2+ stock and 1.25 mL of the sterile 10 mg/mL Mg^2+ stock solutions were added per 1 L of autoclaved BHI medium to obtain 25 mg/L Ca^2+ and 12.5 mg/L Mg^2+ ions, respectively.
(§3) General Assay Protocol: Stock bacterial cultures were streaked onto BHI agar plates and grown overnight at 37° C. Fresh aliquots of broth were inoculated with single bacterial colonies and the cultures were grown overnight at 37° C. with shaking (240 rpm) in cation adjusted BHI media. The following morning, the overnight cultures were sub-cultured (1:5 dilution) into fresh aliquots of cation adjusted BHI media and grown at 37° C. for 1-2 hours with shaking. After 2 h, cultures were diluted into fresh media to achieve final OD600 readings of 0.017. Aliquots of these diluted cultures (30 μL) were added to clear, flat-bottom, 384-well polystyrene plates that were stamped with 0.5 μL of test compounds in 20 μL media. […] Plates were sealed with “Breathe Easy” oxygen permeable membranes (Diversified Biotech) and left to incubate at 37° C. without shaking (stagnant assay). OD600 nm readings were taken at either 6-8 h (S. aureus, MRSA, K. pneumonia, E. cloacae, and P. aeruginosa) or 24 h (E. faecium and A. baumannii). A second set of baseline control plates were prepared analogously, but without any bacteria added, to correct for possible compound absorbance and/or precipitation. Plates were then read at 600 nm using a Molecular Devices SpectraMax Plus384 microplate reader. […] Results presented represent the averages of EC50 values obtained from at quadriplicate (duplicate of duplicate) replicates.

In assay [2] the test system is Enterobacter cloacae (ATCC 13047). The experiment in a line: Bacterial proliferation assay, E. cloacae. Type of assay: cell-based.
Text: as §1, §2, §3

Assay [3] concerns Pseudomonas aeruginosa (ATCC 10145). The experiment in a line: Bacterial proliferation assay, P. aeruginosa. Type of assay: cell-based.
Text: as §1, §2, §3

The test system of assay [4] is Enterococcus faecium (ATCC 19434). The experiment in a line: Bacterial proliferation assay, E. faecium. The assay is classed as cell-based.
Text: as §1, §2, §3

For assay [5], the system named is Drug sensitive Staphylococcus aureus (ATCC 25923). Description: Bacterial proliferation assay, drug sensitive S. aureus. The assay is classed as cell-based.
Text: as §1, §2, §3

For assay [6], the system named is Klebsiella Pneumonia (ATCC 13883). The experiment in a line: Bacterial proliferation assay, K. pneumoniae. Type of assay: cell-based.
Text: as §1, §2, §3

The target of assay [7] is T1, native MDH (Sus scrofa, UniProt P00346).
T1 construct: soluble pig heart MDH from Roche, product #10127248001; purchased Roche 10127248001; host or cells: pig heart
T1 sequence (P00346 25-338): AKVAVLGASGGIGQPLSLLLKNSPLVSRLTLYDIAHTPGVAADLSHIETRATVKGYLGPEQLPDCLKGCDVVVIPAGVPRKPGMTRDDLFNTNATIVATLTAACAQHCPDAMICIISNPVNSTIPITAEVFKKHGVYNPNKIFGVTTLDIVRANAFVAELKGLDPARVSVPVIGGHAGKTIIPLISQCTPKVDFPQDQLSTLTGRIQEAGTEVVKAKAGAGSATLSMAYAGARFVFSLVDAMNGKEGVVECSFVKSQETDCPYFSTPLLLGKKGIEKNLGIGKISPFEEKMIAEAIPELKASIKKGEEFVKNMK
Description: Counter-screen for inhibition of native MDH enzymatic activity. Type of assay: biochemical, pig. How it is done: Reagent Preparations & Assay Protocol: This assay was performed as described above for the GroEL/ES-dMDH refolding assay; however, the assay protocol differed in the sequence of compound addition to the assay plates. The refolding reactions were allowed to proceed for 45 min at 37° C. in the absence of test compounds (complete refolding of MDH occurs), then quenched with the EDTA stock. Compounds were then pin-transferred into the plates after the EDTA quenching step; thus, compounds effects are only possible by inhibiting the fully-refolded MDH reporter substrate. […] A340 nm measurements were recorded at 0.5 minutes (start point) and at successive time points until the amount of NADH consumed reached ˜90% (end point, generally between 20-35 minutes). Compounds were tested in 8-point, 3-fold dilution series (62.5 μM to 29 nM during the reporter reaction) in clear, flat-bottom 384-well microtiter plates. DMSO was used as a negative control, and previously discovered native MDH inhibitors were used as positive controls. […] Results presented represent the averages of IC50 values obtained from at least quadriplicate (duplicate of duplicate) replicates.
For orientation: A counterscreen serves to expose hits that act by an unwanted route or on another target.

The mark [8] stands for this setting: Staphylococcus aureus, MRSA, log of EC50 (μM scale), with standard deviation, read-out: log(EC50) Bacterial Proliferation Assay S. aureus Resistant (converted).
Setting [9] is: ATCC13047, OD600 at 6-8 h, read-out: Bacterial Proliferation EC50 E. cloacae.
Setting [10] is: ATCC13047, log of EC50 (μM scale), with standard deviation, read-out: log(EC50) Bacterial Proliferation Assay E. cloacae (converted).
[11] abbreviates: ATCC10145, OD600 at 6-8 h, read-out: Bacterial Proliferation EC50 P. aeruginosa.
Setting [12] is: ATCC10145, log of EC50 (μM scale), with standard deviation, read-out: log(EC50) Bacterial Proliferation Assay P. aeruginosa (converted).
Where [13] appears, read: ATCC19434, OD600 at 24 h, read-out: Bacterial Proliferation EC50 E. faecium.
Setting [14] is: ATCC19434, log of EC50 (μM scale), with standard deviation, read-out: log(EC50) Bacterial Proliferation Assay C. faecium (converted).
The mark [15] stands for this setting: ATCC25923, OD600 at 6-8 h, read-out: Bacterial Proliferation EC50 S. aureus Sensitive.
[16] abbreviates: ATCC25923, log of EC50 (μM scale), with standard deviation, read-out: log(EC50) Bacterial Proliferation Assay S. aureus Sensitive (converted).
Setting [17] is: ATCC13883, OD600 at 6-8 h, read-out: Bacterial Proliferation EC50 K. pneumoniae.
Where [18] appears, read: ATCC13883, log of EC50 (μM scale), with standard deviation, read-out: log(EC50) Bacterial Proliferation Assay K. pneumoniae (converted).
[19] abbreviates: log of IC50 (μM scale), with standard deviation, read-out: log(IC50) Native MDH Reporter (converted).
[20] abbreviates: read-out: Biochemical Assay IC50 Native MDH Reporter.
[21] abbreviates: Staphylococcus aureus, read-out: log(EC50) Bacterial Proliferation Assay S. aureus Resistant (converted).
Where [22] appears, read: ATCC13047, read-out: Bacterial Proliferation EC50 E. cloacae.
The mark [23] stands for this setting: ATCC13047, read-out: log(EC50) Bacterial Proliferation Assay E. cloacae (converted).
Setting [24] is: ATCC10145, read-out: Bacterial Proliferation EC50 P. aeruginosa.
The mark [25] stands for this setting: ATCC10145, read-out: log(EC50) Bacterial Proliferation Assay P. aeruginosa (converted).
The mark [26] stands for this setting: ATCC19434, 24 h, read-out: Bacterial Proliferation EC50 E. faecium.
Setting [27] is: ATCC19434, read-out: log(EC50) Bacterial Proliferation Assay C. faecium (converted).
Setting [28] is: ATCC25923, read-out: Bacterial Proliferation EC50 S. aureus Sensitive.
Setting [29] is: ATCC25923, read-out: log(EC50) Bacterial Proliferation Assay S. aureus Sensitive (converted).
Setting [30] is: ATCC13883, read-out: Bacterial Proliferation EC50 K. pneumoniae.
Setting [31] is: ATCC13883, read-out: log(EC50) Bacterial Proliferation Assay K. pneumoniae (converted).
The mark [32] stands for this setting: log of IC50 (μM scale), with standard deviation.

Regarding `COc1c(Br)cccc1C(=O)Nc1ccccc1` [Compound 42, 3-Bromo-2-methoxy-N-phenylbenzamide], the EC50 in assay [1] (setting [8]), in assay [2] (setting [9]), in assay [2] (setting [10]), in assay [3] (setting [11]), in assay [3] (setting [12]) and in assay [4] (setting [13]) was more than 100 µM in each case. The EC50 in assay [4] (setting [14]), in assay [5] (setting [15]), in assay [5] (setting [16]), in assay [6] (setting [17]) and in assay [6] (setting [18]) was more than 100 µM each time. Further, the IC50 in assay [7] (setting [19]) was more than 63.1 µM; in assay [7] (setting [20]), more than 63 µM.

Regarding `Cc1cc(C(C#N)c2ccc(Cl)cc2)c(Cl)cc1NC(=O)c1cc(I)cc(I)c1O` (stereo not shown) [Closantel, closantel, reference compound], the EC50 in assay [1] (setting [21]) was 0.468 µM; in assay [2] (setting [22]), more than 100 µM; in assay [2] (setting [23]) it was more than 100 µM; in assay [3] (setting [24]) it was more than 100 µM; in assay [3] (setting [25]), more than 100 µM; in assay [4] (setting [26]) it was 1.2 µM. Moreover, the EC50 in assay [4] (setting [27]) is 1.23 µM; in assay [5] (setting [28]), 0.47 µM; in assay [5] (setting [29]), 0.468 µM; in assay [6] (setting [30]), more than 100 µM; in assay [6] (setting [31]), more than 100 µM. The “inhibition of native MDH enzymatic activity (in words)” value in assay [7] (false-positive counter-screen) was “inhibit native MDH”. Further, the “log(IC50) Native MDH Reporter” value in assay [7] (setting [32]) stood at 0.79 ± 0.17.

`COc1c(Br)cc(Br)cc1C(=O)Nc1ccc(Sc2nc3ccccc3s2)c(Cl)c1` [Compound 29, N-(4-(Benzo[d]thiazol-2-ylthio)-3-chlorophenyl)-3,5-dibromo-2-methoxybenzamide]: the EC50 in assay [1] (setting [8]), in assay [2] (setting [9]), in assay [2] (setting [10]), in assay [3] (setting [11]), in assay [3] (setting [12]) and in assay [4] (setting [13]) was more than 100 µM in each case. For the same molecule, the EC50 in assay [4] (setting [14]), in assay [5] (setting [15]), in assay [5] (setting [16]), in assay [6] (setting [17]) and in assay [6] (setting [18]) was more than 100 µM throughout. For the same molecule, the IC50 in assay [7] (setting [19]) is more than 63.1 µM; in assay [7] (setting [20]), more than 63 µM.

As to `O=C(Nc1ccc(Sc2nc3ccccc3s2)cc1)c1cc(Br)cc(Br)c1` [Compound 20, N-(4-(Benzo[d]thiazol-2-ylthio)phenyl)-3,5-dibromobenzamide], the EC50 in assay [1] (setting [8]), in assay [2] (setting [9]), in assay [2] (setting [10]), in assay [3] (setting [11]), in assay [3] (setting [12]) and in assay [4] (setting [13]) was more than 100 µM throughout. Besides, the EC50 in assay [4] (setting [14]), in assay [5] (setting [15]), in assay [5] (setting [16]), in assay [6] (setting [17]) and in assay [6] (setting [18]) was more than 100 µM each time. The IC50 in assay [7] (setting [19]) is more than 63.1 µM; in assay [7] (setting [20]) it was more than 63 µM.

Take `O=C(Nc1ccc(Oc2ccc(Cl)cc2)c(Cl)c1)c1cc(I)cc(I)c1O` [Rafoxanide, rafoxanide, reference compound]: the EC50 in assay [1] (MRSA, OD600 at 6-8 h, read-out: Bacterial Proliferation EC50 S. aureus Resistant) is 0.34 µM; in assay [1] (setting [21]), 0.347 µM; in assay [2] (setting [22]), 40 µM; in assay [2] (setting [23]) it was 40.7 µM; in assay [3] (setting [24]) it was more than 100 µM; in assay [3] (setting [25]), more than 100 µM. For the same molecule, the EC50 was 0.99 µM in assay [4] (setting [26]); 1 µM in assay [4] (setting [27]); 0.32 µM in assay [5] (setting [28]); 0.324 µM in assay [5] (setting [29]); more than 100 µM in assay [6] (setting [30]); more than 100 µM in assay [6] (setting [31]). Also, the “log(IC50) Native MDH Reporter” value in assay [7] (setting [32]) is 1.40 ± 0.34.

As to `O=C(Nc1ccccc1)c1ccccc1O` [Compound 16, 2-Hydroxy-N-phenylbenzamide], the EC50 in assay [1] (Staphylococcus aureus, read-out: Bacterial Proliferation EC50 S. aureus Resistant) was 51 µM; in assay [1] (setting [21]) it was 51.3 µM; in assay [2] (setting [22]), more than 100 µM; in assay [2] (setting [23]) it was more than 100 µM; in assay [3] (setting [24]), more than 100 µM; in assay [3] (setting [25]), more than 100 µM. Moreover, the EC50 in assay [4] (setting [26]) was more than 100 µM; in assay [4] (setting [27]) it was more than 100 µM; in assay [5] (setting [28]), 28 µM; in assay [5] (setting [29]) it was 27.5 µM; in assay [6] (setting [30]) it was more than 100 µM; in assay [6] (setting [31]), more than 100 µM. Further, the IC50 in assay [7] (Biochemical Assay IC50 Native MDH Reporter) is more than 63 µM; in assay [7] (log(IC50) Native MDH Reporter, log of IC50 (μM scale), with standard deviation), more than 63.1 µM.

The IC50 is the concentration that inhibits the measured activity by half.
